Assay results as given in US12605396B2, “Methods of treating mastitis with an orthosomycin antimicrobial compound” (Intervet Inc., priority 2020, dated 2026).
In brackets after ≈: the same amount, converted by molar mass. Several values for one entry are separate records, joined by “and”; a condition that tells them apart may be missing. Equal entries are not always repeated. Entries after “also recorded” stand apart in the source; their conditions may differ. Where two headings read alike, the source gives them in different places.

How the values were obtained:
S. aureus [1] = assay: MIC in full cream UHT milk with alamar Blue; format: cell-based, Staphylococcus aureus; conditions: for Distribution of MIC values: isolates with MIC 0.125 μg/ml / Distribution of MIC values: isolates with MIC 0.25 μg/ml / Distribution of MIC values: isolates with MIC 0.5 μg/ml / Distribution of MIC values: isolates with MIC 1 μg/ml / Distribution of MIC values: isolates with MIC 2 μg/ml / Distribution of MIC values: isolates with MIC 4 μg/ml / Distribution of MIC values: isolates with MIC 8 μg/ml / Distribution of MIC values: isolates with MIC 16 μg/ml / Distribution of MIC values: isolates with MIC 32 μg/ml / Distribution of MIC values: isolates with MIC 64 μg/ml / Distribution of MIC values: isolates with MIC >64 μg/ml / Distribution of MIC values: isolates with MIC ≤0.063 μg/ml / MIC90: S. aureus (n = 20); for S. aureus MIC, milk: individual S. aureus isolates, in µg/mL
Procedure: (§1) For MIC determination in milk, the in vitro activity was determined by measuring the minimum inhibitory concentrations (MIC) according to CLSI document VET01-A4 [1] using full cream UHT milk as test medium. About 2 h before the end of the incubation 10 μL of alamar Blue® was added to each well of the microdilution trays, resulting in a final concentration of 10% of alamar Blue®. Blue color of the medium indicated no living cells (no bacterial growth) red/pink to white color of the medium indicated living cells (bacterial growth). The MIC results were interpreted according to the CLSI document VET01-S3 [2].

S. aureus [2] = assay: MIC in bacteriological broth (CLSI VET01-A4); format: cell-based, Staphylococcus aureus; conditions: for S. aureus MIC, CAMHB: bacteriological broth (CAMHB), individual S. aureus isolates; for Activity against S. aureus isolates in bacteriological broth: different S. aureus isolates
Procedure: (§2) Minimal inhibitory concentrations (MIC) were determined in bacteriological broth according to Clinical and Laboratory Standard Institute (CLSI) guideline VET01-A4 [1]. The MIC results were interpreted according to the CLSI document VET01-S3 [2].

coa-neg Staph. = assay: MIC in bacteriological broth (CLSI VET01-A4); format: cell-based, coagulase-negative staphylococci
Procedure: as §2

Strep. agalactiae = assay: MIC in bacteriological broth (CLSI VET01-A4); format: cell-based, Streptococcus agalactiae
Procedure: as §2

Strep. dysgalactiae = assay: MIC in bacteriological broth (CLSI VET01-A4); format: cell-based, Streptococcus dysgalactiae
Procedure: as §2

S. uberis = assay: MIC in bacteriological broth (CLSI VET01-A4); format: cell-based, Streptococcus uberis
Procedure: as §2

Truep. pyogenes = assay: MIC in bacteriological broth (CLSI VET01-A4); format: cell-based, Trueperella pyogenes
Procedure: as §2

[3] = test system: mastitis-causing pathogens; assay: Antimicrobial activity against mastitis-causing pathogens (overall statement); format: cell-based; conditions: broth-dilution assay and milk
Procedure: as §2, §1

[4] = broth, of 15 Staph. aureus isolates
[5] = broth, of 15 coa-neg Staph. isolates
[6] = broth, of 15 Strep. agalactiae isolates
[7] = broth, of 15 Strep. dysgalactiae isolates
[8] = broth, of 15 Strep. uberis isolates

SMILES: CC1(C)S[C@@H]2[C@H](NC(=O)Cc3ccccc3)C(=O)N2[C@H]1C(=O)O [Penicillin G, penicillin G]
- Distribution of MIC values: isolates with MIC 0.125 μg/ml (S. aureus [1]): 0
- Distribution of MIC values: isolates with MIC 0.25 μg/ml (S. aureus [1]): 0
- Distribution of MIC values: isolates with MIC 0.5 μg/ml (S. aureus [1]): 0
- Distribution of MIC values: isolates with MIC 1 μg/ml (S. aureus [1]): 1
- Distribution of MIC values: isolates with MIC 2 μg/ml (S. aureus [1]): 0
- Distribution of MIC values: isolates with MIC 4 μg/ml (S. aureus [1]): 0
- Distribution of MIC values: isolates with MIC 8 μg/ml (S. aureus [1]): 2
- Distribution of MIC values: isolates with MIC 16 μg/ml (S. aureus [1]): 1
- Distribution of MIC values: isolates with MIC 32 μg/ml (S. aureus [1]): 1
- Distribution of MIC values: isolates with MIC 64 μg/ml (S. aureus [1]): 0
- Distribution of MIC values: isolates with MIC >64 μg/ml (S. aureus [1]): 1
- Distribution of MIC values: isolates with MIC ≤0.063 μg/ml (S. aureus [1]): 14
- MIC90 (S. aureus [1]): 16 µg/mL (≈ 47.8 µM)

SMILES: CC[C@@]1([C@@H]2O[C@@H]([C@H]3O[C@@](O)(CO)[C@H](C)C[C@@H]3C)C[C@@H]2C)CC[C@H]([C@]2(C)CC[C@]3(C[C@H](O)[C@@H](C)[C@@H]([C@@H](C)[C@@H](OC)[C@H](C)C(=O)O)O3)O2)O1 [Monensin, monensin]
- S. aureus MIC, CAMHB (S. aureus [2]): 0.25 (2×) and 2 (6×)
- Activity against S. aureus isolates in bacteriological broth (S. aureus [2]; bacteriological broth): active
- Activity in milk (S. aureus [1]): no activity; also recorded: lost any activity
- S. aureus MIC, milk (S. aureus [1]): >32

SMILES: CC[C@@H](C(=O)[C@@H](C)[C@@H](O)[C@H](C)CCc1ccc(C)c(O)c1C(=O)O)[C@H]1O[C@](CC)([C@H]2CC[C@](O)(CC)[C@H](C)O2)C[C@@H]1C [Lasalocid, lasalocid]
- S. aureus MIC, CAMHB (S. aureus [2]): 0.25 (3×) and 1 (4×) and 0.5
- Activity against S. aureus isolates in bacteriological broth (S. aureus [2]; bacteriological broth): active
- Activity in milk (S. aureus [1]): no activity; also recorded: lost any activity
- S. aureus MIC, milk (S. aureus [1]): >32

SMILES: CC[C@@H](C(=O)[C@@H](C)[C@@H](O)[C@H](C)[C@@H]1O[C@@H]([C@@H](CC)C(=O)O)CC[C@@H]1C)[C@H]1O[C@]2(C=C[C@@H](O)[C@]3(CC[C@@](C)([C@H]4CC[C@](O)(CC)[C@H](C)O4)O3)O2)[C@H](C)C[C@@H]1C [Salinomycin, salinomycin]
- S. aureus MIC, CAMHB (S. aureus [2]): 0.25 (2×) and 1 and 0.5 (5×)
- Activity against S. aureus isolates in bacteriological broth (S. aureus [2]; bacteriological broth): active
- Activity in milk (S. aureus [1]): no activity; also recorded: lost any activity
- S. aureus MIC, milk (S. aureus [1]): >32

SMILES: COC[C@H]1O[C@@H](O[C@@H]2OC[C@@H]3O[C@@]4(OC[C@@H](OC(=O)c5c(C)cc(O)cc5O)[C@@H]5OCO[C@H]54)O[C@H]3[C@H]2O)[C@@H](OC)[C@@H](O)C1O[C@@H]1O[C@H](C)[C@H](OC)[C@H](OC2O[C@H](C)[C@H]3O[C@]4(C[C@@H](O)[C@H](O[C@H]5C[C@@H](O[C@H]6C[C@](C)([N+](=O)[O-])[C@@H](OC)[C@H](C)O6)[C@H](OC(=O)c6c(C)c(Cl)c(O)c(Cl)c6OC)[C@@H](C)O5)[C@@H](C)O4)O[C@]3(C)[C@@H]2O)[C@H]1O (stereo partly shown) [evernimicin]
- MIC50 (S. aureus [2]; Staphylococcus aureus, bacteriological broth, 15 Staph. aureus isolates tested, read-out: MIC50): 0.5 µg/mL (≈ 0.306 µM)
- MIC90 (S. aureus [2]; Staphylococcus aureus, bacteriological broth, 15 Staph. aureus isolates tested, read-out: MIC90): 0.5 µg/mL (≈ 0.306 µM)
- MIC (S. aureus [2]; Staphylococcus aureus, bacteriological broth, 15 Staph. aureus isolates tested, read-out: Maximum MIC): 0.5 µg/mL (≈ 0.306 µM)
- MIC (S. aureus [2]; Staphylococcus aureus, bacteriological broth, 15 Staph. aureus isolates tested, read-out: Minimum MIC): 0.125 µg/mL (≈ 0.0766 µM)
- Number of isolates with MIC 0.125 μg/mL (S. aureus [2]; [4]): 1
- Number of isolates with MIC 0.25 μg/mL (S. aureus [2]; [4]): 2
- Number of isolates with MIC 0.5 μg/mL (S. aureus [2]; [4]): 12
- MIC50 (coa-neg Staph.; bacteriological broth, 15 coa-neg Staph. isolates tested, read-out: MIC50): 0.5 µg/mL (≈ 0.306 µM)
- MIC90 (coa-neg Staph.; bacteriological broth, 15 coa-neg Staph. isolates tested, read-out: MIC90): 1 µg/mL (≈ 0.613 µM)
- MIC (coa-neg Staph.; bacteriological broth, 15 coa-neg Staph. isolates tested, read-out: Maximum MIC): 8 µg/mL (≈ 4.9 µM)
- MIC (coa-neg Staph.; bacteriological broth, 15 coa-neg Staph. isolates tested, read-out: Minimum MIC): 0.25 µg/mL (≈ 0.153 µM)
- Number of isolates with MIC 0.25 μg/mL (coa-neg Staph.; [5]): 6
- Number of isolates with MIC 0.5 μg/mL (coa-neg Staph.; [5]): 6
- Number of isolates with MIC 1 μg/mL (coa-neg Staph.; [5]): 2
- Number of isolates with MIC 8 μg/mL (coa-neg Staph.; [5]): 1
- MIC50 (Strep. agalactiae; Streptococcus agalactiae, bacteriological broth, 15 Strep. agalactiae isolates tested, read-out: MIC50): 0.125 µg/mL (≈ 0.0766 µM)
- MIC90 (Strep. agalactiae; Streptococcus agalactiae, bacteriological broth, 15 Strep. agalactiae isolates tested, read-out: MIC90): 0.25 µg/mL (≈ 0.153 µM)
- MIC (Strep. agalactiae; Streptococcus agalactiae, bacteriological broth, 15 Strep. agalactiae isolates tested, read-out: Maximum MIC): 0.25 µg/mL (≈ 0.153 µM)
- MIC (Strep. agalactiae; Streptococcus agalactiae, bacteriological broth, 15 Strep. agalactiae isolates tested, read-out: Minimum MIC): 0.125 µg/mL (≈ 0.0766 µM)
- Number of isolates with MIC 0.125 μg/mL (Strep. agalactiae; [6]): 12
- Number of isolates with MIC 0.25 μg/mL (Strep. agalactiae; [6]): 3
- MIC50 (Strep. dysgalactiae; Streptococcus dysgalactiae, bacteriological broth, 15 Strep. dysgalactiae isolates tested, read-out: MIC50): 0.125 µg/mL (≈ 0.0766 µM)
- MIC90 (Strep. dysgalactiae; Streptococcus dysgalactiae, bacteriological broth, 15 Strep. dysgalactiae isolates tested, read-out: MIC90): 0.25 µg/mL (≈ 0.153 µM)
- MIC (Strep. dysgalactiae; Streptococcus dysgalactiae, bacteriological broth, 15 Strep. dysgalactiae isolates tested, read-out: Maximum MIC): 0.25 µg/mL (≈ 0.153 µM)
- MIC (Strep. dysgalactiae; Streptococcus dysgalactiae, bacteriological broth, 15 Strep. dysgalactiae isolates tested, read-out: Minimum MIC): 0.125 µg/mL (≈ 0.0766 µM)
- Number of isolates with MIC 0.125 μg/mL (Strep. dysgalactiae; [7]): 11
- Number of isolates with MIC 0.25 μg/mL (Strep. dysgalactiae; [7]): 4
- MIC50 (S. uberis; Streptococcus uberis, bacteriological broth, 15 Strep. uberis isolates tested, read-out: MIC50): 0.25 µg/mL (≈ 0.153 µM)
- MIC90 (S. uberis; Streptococcus uberis, bacteriological broth, 15 Strep. uberis isolates tested, read-out: MIC90): 0.5 µg/mL (≈ 0.306 µM)
- MIC (S. uberis; Streptococcus uberis, bacteriological broth, 15 Strep. uberis isolates tested, read-out: Maximum MIC): 0.5 µg/mL (≈ 0.306 µM)
- MIC (S. uberis; Streptococcus uberis, bacteriological broth, 15 Strep. uberis isolates tested, read-out: Minimum MIC): 0.125 µg/mL (≈ 0.0766 µM)
- Number of isolates with MIC 0.125 μg/mL (S. uberis; [8]): 2
- Number of isolates with MIC 0.25 μg/mL (S. uberis; [8]): 10
- Number of isolates with MIC 0.5 μg/mL (S. uberis; [8]): 3
- MIC50 (Truep. pyogenes; Trueperella pyogenes, bacteriological broth, 15 Truep. pyogenes isolates tested, read-out: MIC50): ≤ 0.063 µg/mL
- MIC90 (Truep. pyogenes; Trueperella pyogenes, bacteriological broth, 15 Truep. pyogenes isolates tested, read-out: MIC90): ≤ 0.063 µg/mL
- MIC (Truep. pyogenes; Trueperella pyogenes, bacteriological broth, 15 Truep. pyogenes isolates tested, read-out: Maximum MIC): ≤ 0.063 µg/mL
- MIC (Truep. pyogenes; Trueperella pyogenes, bacteriological broth, 15 Truep. pyogenes isolates tested, read-out: Minimum MIC): ≤ 0.063 µg/mL
- Number of isolates with MIC ≤0.063 μg/mL (Truep. pyogenes; broth, of 15 Truep. pyogenes isolates): 15
- MIC90 against S. aureus compared with MIC90 of penicillin G (S. aureus [1]): identical
- Distribution of MIC values: isolates with MIC 0.125 μg/ml (S. aureus [1]): 0
- Distribution of MIC values: isolates with MIC 0.25 μg/ml (S. aureus [1]): 0
- Distribution of MIC values: isolates with MIC 0.5 μg/ml (S. aureus [1]): 0
- Distribution of MIC values: isolates with MIC 1 μg/ml (S. aureus [1]): 0
- Distribution of MIC values: isolates with MIC 2 μg/ml (S. aureus [1]): 0
- Distribution of MIC values: isolates with MIC 4 μg/ml (S. aureus [1]): 4
- Distribution of MIC values: isolates with MIC 8 μg/ml (S. aureus [1]): 11
- Distribution of MIC values: isolates with MIC 16 μg/ml (S. aureus [1]): 5
- Distribution of MIC values: isolates with MIC 32 μg/ml (S. aureus [1]): 0
- Distribution of MIC values: isolates with MIC 64 μg/ml (S. aureus [1]): 0
- Distribution of MIC values: isolates with MIC >64 μg/ml (S. aureus [1]): 0
- Distribution of MIC values: isolates with MIC ≤0.063 μg/ml (S. aureus [1]): 0
- MIC90 (S. aureus [1]; Staphylococcus aureus, read-out: MIC90): 16 µg/mL (≈ 9.81 µM)
- Antimicrobial activity against mastitis-causing pathogens [3]: Good antimicrobial activity
